Results as given in paper PMC7551591, “The Effect of Resveratrol or Curcumin on Head and Neck Cancer Cells Sensitivity to the Cytotoxic Effects of Cisplatin” (Nutrients, 2020).

How the values were obtained:
Format in all cases: cell-based, human
[1] = tested on: PE/CA-PJ49 tumor cells; experiment: MTT drug sensitivity (viability) assay, tumor cells; details: PE/CA-PJ49, 24 h
Protocol: (§1) The MTT assay is based on the ability of viable cells to reduce the reagent 3-(4,5-dimethylthiazol-2-yl)-2,5-diphenyltetrazolium bromide to colored formazan compounds [48]. Because the transformation is only possible in viable cells, the amount of blue formazan is proportional to the number of viable cells and thus, a linear dependence exists between cell activity and absorbance. Cells were seeded in triplicate in 96-well plates at a density of 5000 cells/well, incubated at 37 °C for 24 h. […] After the incubation period, 20 μL MTT (5 mg/mL in PBS) was added and further incubated for 4 h. The supernatant was removed, and the formazan product was analyzed spectrophotometrically (570 nm) after dissolution in DMSO. Wells without cells serve as a blank, and their absorbance was subtracted from the other results. Untreated cells were used as control and their viability was assumed as 100%. Results were expressed as mean values of three determinations ± standard deviation (SD). Data are presented as percent of cell viability and compared to untreated [Viability% = (T − B)/(U − B) × 100, {where T = absorbance of treated cells; U = absorbance of untreated cells, B = absorbance of blank}]. Once percent viability was obtained, the drug response curve was generated, and inhibitory concentration (IC50 and IC25) was calculated using GraphPad Prism version 5.01 [49].
(§2) SI values of more than 2 were considered as indicative of high selectivity.
(§3) The anticancer cytotoxic activity in vitro was evaluated by the MTT assay. […] The most widely used and informative measure of a drug’s efficacy is IC50-the half-maximal inhibitory concentration. IC50 was determined at half of the difference between the maximum (plateau) and minimum absorbance values, by plotting the absorbance value at 570 nm (Y axis) versus the concentration of the compound analysed (X axis). The IC50 values were reported as a mean of three independent experiments ± standard deviation (S.D.).

[2] = tested on: HUVEC normal cells; experiment: MTT drug sensitivity (viability) assay, normal cells; details: 24 h
Protocol: as §1, §2, §3

[3] = tested on: p21 protein (CIP1/CDKN1A) expression in HUVEC; experiment: Total p21 protein ELISA in cell lysates, normal cells; details: 24 h
Protocol: (§4) After incubation, cells were washed twice with ice-cold PBS, scraped, pelleted and lysed in RIPA buffer (Pierce) supplemented with protease inhibitor cocktail (Roche) and phosphatase inhibitor (Roche) for 30 min on ice. The lysates were transfered into microcentrifuge tubes and centrifuged at 14,000× g for 5 min at 4 °C followed by sonication (10–15 s × 3). The supernatants were collected into clean microcentrifuge tubes and stored at −80 °C. Lysates protein concentration were quantified by BCA protein assay kit (Thermo Scientific) and aliquots of 50 μg of total cell lysate were used for ELISA assay.
(§5) DuoSetR IC ELISA-Human Total p21/CIP1/CDKN1A(: DYC1047-2) was purchased from R&D Systems Inc. and contains the basic components required for the development of sandwich ELISAs to measure human p21 protein also known as CIP1 and CDKN1A in cell lysates. An immobilized capture antibody specifically binds human p21. After washing away unbound material, a biotinylated detection antibody specific for human p21 is used to detect the captured protein, utilizing a standard Streptavidin-HRP format. All experiments were performed in triplicates and absorbance was measured at λ = 450 nm using a Dynex plate reader.
(§6) In cancer development and evolution p21 protein might acts as an oncogene or tumor suppressor and for this reason it could be an important player in processes such as the cancer aggressiveness or the response to chemotherapy. In this study, using ELISA assay we analyzed the expression level of p21 in the tumor cells (PE-CA/PJ49) compared to a normal cells (HUVEC).

[4] = tested on: p21 protein (CIP1/CDKN1A) expression in PE/CA-PJ49; experiment: Total p21 protein ELISA in cell lysates, tumor cells; details: 24 h
Protocol: as §4, §5, §6

[5] = tested on: PE/CA-PJ49 tumor cells; experiment: Annexin V-FITC/PI apoptosis flow cytometry, tumor cells; details: 24 h
Protocol: (§7) The apoptosis assay was carried out with the Annexin V-FITC kit using the manufacturer’s (BD Pharmingen) protocol. Treated and untreated 1 × 10^6 cells/mL were resuspended in cold binding buffer and staining simultaneously with 5 μL FITC-Annexin V (green fluorescence) and 5 μL propidium iodide (PI) in the dark, at room temperature for 15 min. Then, 400μL of Annexin V binding buffer was added and 10,000 cells/sample were acquired using a BD Canto II flow cytometer. The analysis was performed using DIVA 6.2 software in order to discriminate viable cells (FITC^−PI^−) from necrotic cells […] and early apoptosis (FITC^+PI^−) from late apoptosis.
(§8) Apoptosis can be seen as an efficient method of preventing malignant transformation, as it ensures the removal of cells which present with genetic alterations. Deficient apoptosis can promote the development of cancer, both through the accumulation of cells found during division and the blocking of the removal of cells with high malignant potential genetic variations. The factors which determine the cells to follow one of three possible pathways are not yet known – the start of apoptosis after cellular injury, the repair of the lesion or the continuation of the cellular cycle. Many therapeutical agents have anti-tumoral effects generated by their capacity to activate the apoptotic process. […] The flow cytometric analysis was performed using DIVA 6.2 software and allowed to discriminate viable cells (FITC^−PI^− = Q3) from necrotic cells (FITC^−PI^+ = Q1) and early apoptosis (FITC^+PI^− = Q4) from late apoptosis (FITC^+PI^+ = Q2).

[6] = tested on: HUVEC normal cells; experiment: Annexin V-FITC/PI apoptosis flow cytometry, normal cells; details: 24 h; for Apoptoza Tarzie = Q2 (%): late apoptosis; for Apoptoza Totală = Q2+Q4 (%): total apoptosis
Protocol: as §7, §8

[7] = tested on: PE/CA-PJ49 tumor cells; experiment: Cell cycle phase distribution by PI flow cytometry, tumor cells; details: 24 h, CisPt 20 μM
Protocol: (§9) For analysis of cell-cycle distribution, the cells were collected after treatment, fixed with 70% ethanol for at least one hour at 4 °C. The cells were stained with propidium iodide (PI) an agent which intercalates into the major groove of double-stranded DNA and produces a highly fluorescent adduct that can be excited at 488 nm with a broad emission around 600 nm. Since PI can also bind to double-stranded RNA, it is necessary to treat the cells with RNase for optimal DNA resolution. Cells (1×10^6 cells/mL) were washed in PBS and centrifuge at 300× g, 5 min at 4 °C. The pellet of the cells were incubated for 10 min at 37 °C with 0.5 mg/sample RNase A and then was added 10 μg/sample of PI staining solution to cell pellet, mix well and incubated 10 min at 37 °C. The samples stored at 4 °C until analyzed by flow cytometry. A minimum of 20,000 events for each sample were collected using a FACS CantoII flow cytometer and ModFIT software (BectonDickinson) and used to determine the cell cycle phase distribution after debris exclusion.
(§10) The progression through the cell cycle phases induced by treatment were evaluated by flow cytometry using a FACSCanto II flow cytometer. Data analysis were performed using the ModFit 3.2 program which offers the possibility of evaluating the cell cycle phases distribution (G0/G1, S, G2 + M).

[8] = tested on: HUVEC normal cells; experiment: Cell cycle phase distribution by PI flow cytometry, normal cells; details: 24 h
Protocol: as §9, §10

N.N.[Cl][Pt][Cl] [CisPt, cis-diamminedichloroplatinum]
cell viability (MTT) ([1]; CisPt 5 μM vs untreated cells): significantly affected
cell viability (MTT) ([1]; CisPt 20 μM vs untreated cells): significantly affected
IC 25 ([1]; MTT): 3.95 ± 1.2 µM
IC50 ([1]; MTT): 9.72 ± 1.7 µM
cell viability (MTT) ([2]; CisPt 5 μM vs untreated cells): significantly reduced
cell viability (MTT) ([2]; CisPt 20 μM vs untreated cells): significantly reduced
IC 25 ([2]; MTT): 5.82 ± 1.1 µM
IC50 ([2]; MTT): 20.9 ± 2.1 µM
p21 pg/mL HUVEC ([3]; 5 μM CisPt): 238 pg/mL
p21 pg/mL HUVEC ([3]; 20 μM CisPt): 195 pg/mL
p21 pg/mL PE/CA-PJ49 ([4]; 5 μM CisPt): 1157 pg/mL
p21 pg/mL PE/CA-PJ49 ([4]; 20 μM CisPt): 915 pg/mL
Early Apoptosis = Q4 (%) ([5]; 5 μM CisPt): 11.3%
Late Apoptosis = Q2 (%) ([5]; 5 μM CisPt): 1.2%
Necrosis = Q1 (%) ([5]; 5 μM CisPt): 2.1%
Total Apoptosis = Q2 + Q4 (%) ([5]; 5 μM CisPt): 12.5%
Early Apoptosis = Q4 (%) ([5]; 20 μM CisPt): 15.3%
Late Apoptosis = Q2 (%) ([5]; 20 μM CisPt): 2.1%
Necrosis = Q1 (%) ([5]; 20 μM CisPt): 1.4%
Total Apoptosis = Q2 + Q4 (%) ([5]; 20 μM CisPt): 17.4%
Early Apoptosis = Q4 (%) ([6]; 5 μM CisPt): 5.6%
Necrosis = Q1 (%) ([6]; 5 μM CisPt): 1.6%
Early Apoptosis = Q4 (%) ([6]; 20 μM CisPt): 7.7%
Necrosis = Q1 (%) ([6]; 20 μM CisPt): 1.5%
Apoptoza Tarzie = Q2 (%) ([6]; 5 μM CisPt): 0.5%
Apoptoza Tarzie = Q2 (%) ([6]; 20 μM CisPt): 0.5%
Apoptoza Totală = Q2+Q4 (%) ([6]; 5 μM CisPt): 6.1%
Apoptoza Totală = Q2+Q4 (%) ([6]; 20 μM CisPt): 8.2%
G2/M% [7]: 27.5%
synthesis phase (S) ([8]; 5 μM CisPt): 29.2%
S% ([8]; CisPt 20 μM): 39.65%
